Legend:
Type in all cases: cell-based, human
[1] = test system: sPLA2-IIA protein expression in LNCaP-AI cells; assay: Western blot of sPLA2-IIA protein expression in LNCaP-AI cells; details: about 24 hours; for effect on sPLA2-IIA protein expression: basal states and EGF-induced expression, inhibitor ~20 μM (CI-1033 ~8 μM), FIGS. 2-4
Method: (§1) The role of sPLA2-IIA gene regulation in prostate cancer cells via the HER/HER2-PI3K-Akt-NF-κB pathway was investigated. A reporter assay was performed by transiently transfecting sPLA2-IIA(-800)-Luc (˜0.25 μg/well) reporter in LNCaP-AI cells (˜10^5 cells/well in 12-well plate). The cells were then treated with epidermal growth factor (hereinafter “EGF”) (˜100 ng/mL) without or with EGFR inhibitors Erlotinib (˜20 μM) and Gefitinib (˜20 μM), EGFR/HER2 dual inhibitors Lapatinib (˜20 μM) and CI-1033 (˜8 μM), phosphoinositide 3-kinase (hereinafter “PI3K”) inhibitor LY294002 (˜20 μM), and NF-κB inhibitor Bortezomib (˜20 μM) for about 24 hours. A luciferase assay was performed according to a standard protocol with Renilla luciferase as an internal control. Another reporter assay was performed wherein LNCaP-AI cells were starved in 1% stripped medium for about 24 hours. The cells were the treated with Erlotinib (˜20 μM), Gefitinib (˜20 μM), Lapatinib (˜20 μM), CI-1033 (˜8 μM), LY294002 (˜20 μM), Bortezomib (˜20 μM), and/or Heregulin-α (˜50 ng/mL) without or with EGF (˜100 ng/mL) for about 24 hours.
Cell extracts were then prepared and subjected to western blot analysis for sPLA2-IIA, P-Akt, Akt, and β-actin. Briefly, aliquots of samples with the same amount of protein, determined using the Bradford assay (BioRad, Hercules, Calif.), were mixed with loading buffer (final concentrations of 62.5 mM Tris-HCl, pH 6.8, 2.3% sodium dodecyl sulfate, 100 mM dithiothreitol, and 0.005% bromophenol blue), boiled, fractionated in a sodium dodecyl sulfate-polyacrylamide gel electrophoresis, and transferred onto a 0.45-μm nitrocellulose membrane (BioRad). The filters were blocked with 2% fat-free milk in PBS, and probed with primary antibody in phosphate buffered saline containing 0.1% Tween 20 (i.e., PBST) and 1% fat-free milk. The membranes were then washed four times in PBST and incubated with horseradish peroxidase-conjugated secondary antibody (BioRad) in PBST containing 1% fat-free milk. After washing four times in PBST, the membranes were visualized using the ECL Western Blotting Detection System (Amersham Co, Arlington Height, Ill.).

[2] = test system: sPLA2-IIA secretion by LNCaP-AI cells; assay: ELISA of sPLA2-IIA secreted into culture medium of LNCaP-AI cells; details: inhibitor ~20 μM (CI-1033 ~8 μM), about 24 hours, FIG. 7
Method: Finally, LNCaP-AI cells were starved in 1% stripped medium for about 24 hours. The cells were then treated with Erlotinib (˜20 μM), Gefitinib (˜20 μM), Lapatinib (˜20 μM), CI-1033 (˜8 μM), LY294002 (˜20 μM), and Bortezomib (˜20 μM) for about 24 hours. Cell culture medium was collected from each sample and subjected to ELISA for sPLA2-IIA. The condition medium samples were diluted 10 times for ELISA. The average of duplicate samples was converted to nanogram per milliliter against standard curve. The data represent one of five repeated experiments.

sPLA2-IIA gene promoter = assay: sPLA2-IIA(-800)-Luc reporter (luciferase) assay in LNCaP-AI cells; details: about 24 hours, FIG. 1; for effect on EGF-stimulated promoter activity of sPLA2-IIA gene: EGF ~100 ng/mL with inhibitor ~20 μM (CI-1033 ~8 μM)
Method: as §1

[3] = test system: sPLA2-IIA expression in LAPC-4 and DU145 cells; assay: Western blot of sPLA2-IIA expression in LAPC-4 and DU145 cells; details: Lapatinib ~20 μM, via blocking PI3K-Akt signaling, FIG. 5
Method: A reporter assay was performed by transiently transfecting sPLA2-IIA(-800)-Luc (˜0.25 μg/well) reporter in LNCaP-AI cells (˜10^5 cells/well in 12-well plate). The cells were then treated with epidermal growth factor (hereinafter “EGF”) (˜100 ng/mL) without or with EGFR inhibitors Erlotinib (˜20 μM) and Gefitinib (˜20 μM), EGFR/HER2 dual inhibitors Lapatinib (˜20 μM) and CI-1033 (˜8 μM), phosphoinositide 3-kinase (hereinafter “PI3K”) inhibitor LY294002 (˜20 μM), and NF-κB inhibitor Bortezomib (˜20 μM) for about 24 hours. A luciferase assay was performed according to a standard protocol with Renilla luciferase as an internal control. Another reporter assay was performed wherein LNCaP-AI cells were starved in 1% stripped medium for about 24 hours. […] Briefly, aliquots of samples with the same amount of protein, determined using the Bradford assay (BioRad, Hercules, Calif.), were mixed with loading buffer (final concentrations of 62.5 mM Tris-HCl, pH 6.8, 2.3% sodium dodecyl sulfate, 100 mM dithiothreitol, and 0.005% bromophenol blue), boiled, fractionated in a sodium dodecyl sulfate-polyacrylamide gel electrophoresis, and transferred onto a 0.45-μm nitrocellulose membrane (BioRad). […]

Compound | effect on sPLA2-IIA protein expression [1] | effect on sPLA2-IIA secretion (ELISA of culture medium) [2] | effect on EGF-stimulated promoter activity of sPLA2-IIA gene (sPLA2-IIA gene promoter) | effect on sPLA2-IIA expression in LAPC-4 and DU145 cells [3] | sPLA2-IIA expression (western blot), stimulation by EGF ([1]; EGF ~100 ng/mL, FIGS. 2 and 3) | promoter activity of sPLA2-IIA gene (sPLA2-IIA gene promoter; EGF ~100 ng/mL)
COc1cc2ncnc(Nc3ccc(F)c(Cl)c3)c2cc1OCCCN1CCOCC1 [Gefitinib] | moderate impact | moderate effect | blocked |  |  | 
CS(=O)(=O)CCNCc1ccc(-c2ccc3ncnc(Nc4ccc(OCc5cccc(F)c5)c(Cl)c4)c3c2)o1 [Lapatinib] | dramatically downregulated | significantly inhibited | blocked | inhibited |  | 
C#Cc1cccc(Nc2ncnc3cc(OCCOC)c(OCCOC)cc23)c1 [Erlotinib] | moderate impact | moderate effect | blocked |  |  | 
EGF: epidermal growth factor |  |  |  |  | stimulated sPLA2-IIA expression | significantly stimulated
CC(C)C[C@H](NC(=O)[C@H](Cc1ccccc1)NC(=O)c1cnccn1)B(O)O [Bortezomib] | dramatically downregulated | significantly inhibited | blocked |  |  | 
C=CC(=O)Nc1cc2c(Nc3ccc(F)c(Cl)c3)ncnc2cc1OCCCN1CCOCC1 [CI-1033] | moderate impact | moderate effect | blocked |  |  | 

Reference: US20130095503A1, “SERUM SPLA2-IIA AS DIAGNOSIS MARKER FOR PROSTATE AND LUNG CANCER” (UNIVERSITY OF CINCINNATI, priority 2010, published 2013)
